Reference: patent publication US20030097221A1, “Detection and characterization of psychoactives using parallel multi-site assays in brain tissue” (priority 2001, published 2003)
Values joined by “and” are separate entries in the source; they are usually repeats but may differ in a detail not shown here. Equal values may be shown once.

Columns and labels:
Assay type in all cases: cell-based, rat
[1] = test system: glutamate receptor-mediated evoked excitatory synaptic transmission, hippocampal slice mossy fibers; test: Paired-pulse evoked fEPSP, mossy fibers (assay MF50), MED64; settings: 250 μM; 50 ms inter-pulse delay
Description: (§1) A 17-24 day old Sprague Dawley rat was decapitated after anesthesia with halothane (2-bromo-2-chloro-1,1,1-trifluoroethane; Sigma; B4388), and the whole brain was removed. The brain was immediately soaked for ˜2 min in ice-cold, oxygenated preparation buffer of the following composition (in mM): 124 NaCl, 26 NaHCO3, 10 glucose, 3 KCl, 1.25 NaH2PO4, 2 CaCl2, and 2 MgSO4. Appropriate portions of the brain were trimmed and placed on the ice-cold stage of a vibrating tissue slicer (Leica, Nussloch, Germany; VT-1000S). The stage was immediately filled with both oxygenated and frozen preparation buffers. The thickness of each tissue slice was 350 μm. […]
(§2) Evoked field potentials at all 64 sites (minus stimulation sites) were recorded simultaneously with the multichannel recording system (Panasonic: MED64 system) at a 20 kHz sampling rate. […]
(§3) All assays employ paired-pulse stimulation at various rat hippocampal sites to elicit evoked responses. The resulting field EPSP recordings were analyzed using Matlab software (The MathWorks, Inc.) by computing several response measures such as amplitude, halfwidth, and negative area, which apply to both the first and second evoked reponses. Amplitude was defined as the maximum depolarization magnitude relative to the average baseline reading prior to the first stimulation pulse. […]

[2] = test system: glutamate receptor-mediated evoked excitatory synaptic transmission, hippocampal slice dentate gyrus; test: Paired-pulse evoked fEPSP in dentate gyrus (assay DG50), MED64
Description: as §1, with “μm. Each slice was gently taken off the blade, and immediately soaked in the oxygenated artificial cerebrospinal fluid (ACSF) for at least 1 hr at room temperature. Then a slice was placed on the center of the MED probe. The slice was positioned to cover the 8×8 array. After positioning the slice, the MED probe was immediately placed in a box filled with 95% O2 and 5% CO2.” for “μm.”
as §2, §3
The polarity of the evoked responses for assay DG50 was reversed before analysis because of the inverted voltage values recorded by the DG50 electrode. Assays SC50, SC200, MF50, and CA3-1—50, however, were analyzed without such a reversal. […]
(§4) All response paramters were utilized to quantify candidate sample composition effects on the hippocampus. […]

[3] = test system: glutamate receptor-mediated evoked excitatory synaptic transmission, hippocampal slice CA1; test: Paired-pulse evoked fEPSP in CA1, Schaffer collateral stimulation (assays SC50, SC200), MED64 multi-electrode array; design: key to SC 50 ms Amplitude fEPSP 1st, Mean / SC 50 ms Amplitude fEPSP 2nd, Mean / SC 200 ms Widths fEPSP 1st, Mean / SC 200 ms Widths fEPSP 2nd, Mean: fractional change vs. last 5 min of pre-wash-in control phase
Description: A 17-24 day old Sprague Dawley rat was decapitated after anesthesia with halothane (2-bromo-2-chloro-1,1,1-trifluoroethane; Sigma; B4388), and the whole brain was removed. The brain was immediately soaked for ˜2 min in ice-cold, oxygenated preparation buffer of the following composition (in mM): 124 NaCl, 26 NaHCO3, 10 glucose, 3 KCl, 1.25 NaH2PO4, 2 CaCl2, and 2 MgSO4. Appropriate portions of the brain were trimmed and placed on the ice-cold stage of a vibrating tissue slicer (Leica, Nussloch, Germany; VT-1000S). The stage was immediately filled with both oxygenated and frozen preparation buffers. The thickness of each tissue slice was 350 μm. Each slice was gently taken off the blade, and immediately soaked in the oxygenated artificial cerebrospinal fluid (ACSF) for at least 1 hr at room temperature. Then a slice was placed on the center of the MED probe. The slice was positioned to cover the 8×8 array. After positioning the slice, the MED probe was immediately placed in a box filled with 95% O2 and 5% CO2.
During recording, the slices were continuously perfused with a solution of the following composition: ACSF (in mM): 124 NaCl, 26 NaHCO3, 10 glucose, 3 KCl, 1.25 kH2PO4, 2 CaCl2, 1 MgSO4. All compounds were bath applied at known concentrations and were prepared daily from frozen aliquots. Compounds were purchased from Sigma. Ampakines (CX516, CX546, CX554) were made fresh everyday, and used at concentrations: CX516, 250 μM; CX546, 250 μM; and CX554, 30 μM.
Baseline, application, and recovery time was usually at 10, 20, and 30 min respectively.
During electrophysiological recording, the slices on the MED probe were placed in a small CO2 incubator (Asahi Lifescience; model 4020) at 32° C. The slices were placed on an interface, and a moisturized with a 95% O2 and 5% CO2 gas mixture.
Evoked field potentials at all 64 sites (minus stimulation sites) were recorded simultaneously with the multichannel recording system (Panasonic: MED64 system) at a 20 kHz sampling rate. In the case of the evoked response, one of the planar microelectrodes out of the 64 available was used for the stimulating cathode. Bipolar constant-current pulses (10-50 μA; 0.1 ms) were produced by the data acquisition software via the isolator. The stimulating microelectrode was selected by the 64-switch box.
All assays employ paired-pulse stimulation at various rat hippocampal sites to elicit evoked responses. The resulting field EPSP recordings were analyzed using Matlab software (The MathWorks, Inc.) by computing several response measures such as amplitude, halfwidth, and negative area, which apply to both the first and second evoked reponses. Amplitude was defined as the maximum depolarization magnitude relative to the average baseline reading prior to the first stimulation pulse. Halfwidth was defined as the duration of the depolarization phase of the evoked response at half its maximum amplitude value. Negative area was obtained by taking the magnitude of the integral of the evoked response curve over all segments with the same polarity as the depolarization phase. This integral spans a time window of 25 msec beginning one msec after the stimulation pulse.
Amplitudes and halfwidths for both first and second elicited responses were computed for assays SC50, SC200, and CA3-1—50. For DG50 only first and second amplitudes were computed. Negative areas for first and second responses were computed for SC50, SC200, CA3-1—50, and MF50.
All response paramters were utilized to quantify candidate sample composition effects on the hippocampus. For a given response parameter, the candidate sample composition effect was defined as the percent change of the average measure during the last five minutes of the wash-in phase with respect to the average measure of the last five minutes of the preceding, pre-wash-in control phase. […]

[4] = test system: hippocampal slice regions (CA1, DG, MF); test: Comparison between regions of the slice, area under the curve for all 4 assays (FIG. 9); settings: prediction drawn from the results of FIG. 9
Description: All assays employ paired-pulse stimulation at various rat hippocampal sites to elicit evoked responses. The resulting field EPSP recordings were analyzed using Matlab software (The MathWorks, Inc.) by computing several response measures such as amplitude, halfwidth, and negative area, which apply to both the first and second evoked reponses. Amplitude was defined as the maximum depolarization magnitude relative to the average baseline reading prior to the first stimulation pulse. Halfwidth was defined as the duration of the depolarization phase of the evoked response at half its maximum amplitude value. Negative area was obtained by taking the magnitude of the integral of the evoked response curve over all segments with the same polarity as the depolarization phase. This integral spans a time window of 25 msec beginning one msec after the stimulation pulse. […]
as §4
To compare the response of tissue slices to candidate sample compositions between different regions of the slice, the area under the curve for all 4 assays was calculated.
To compare the effect of compounds in candidate sample compositions between different regions of a tissue slice, the area under the curve for all 4 assays was calculated. […]

[5] = CX546 250 μM, individual slice files, normalized change over control
[6] = CX546 250 μM, n = 5, normalized change over control

## O=C(c1ccc2c(c1)OCCO2)N1CCCCC1 [CX546]
[1]
  mossy fibers' response (area): increase
[2]; 250 μM, 50 ms inter-pulse delay
  responses recorded in dentate gyrus (amplitude): decrease in the amplitude
[2]; area under the curve, representative slices, FIG. 9, CX546 250 μM, CX554 30 μM per Example 3
  second response (fEPSP) in DG: not noticeably altered
[3]; 250 μM, 50 ms or 200 ms delay between stimulation pulses
  half-width of both responses in CA1: increase in the half-width
[3]; 250 μM, 50 ms protocol
  change of the first response (amplitude): no change
  decrease in the second response amplitude: 9±3%
[3]; 250 μM, 200 ms protocol
  effect on amplitude of both responses: no effect
[3]; 250 μM, 200 ms protocol, summary of Table 2
  increase of the halfwidth of first and second fEPSP: 14-15%
[3]; CX516, CX546 250 μM, CX554 30 μM
  kind of modulation of the responses in CA1 (halfwidth vs amplitude): selectively increases halfwidth but not the amplitude
[3]; [5]
  SC 50 ms Amplitude fEPSP 1st: 0.063 and 0.087 and 0.012 and −0.022 and 0.025
  SC 50 ms Amplitude fEPSP 2nd: 0.022 and −0.124 (2×) and −0.130 and −0.088
  SC 50 ms Widths fEPSP 1st: 0.096 and 0.155 and 0.114 and 0.202 and 0.102
  SC 50 ms Widths fEPSP 2nd: 0.067 and 0.026 and −0.025 and 0.065 and 0.031
  SC 200 ms Amplitude fEPSP 1st: 0.064 and 0.083 and 0.028 and −0.007 and 0.021
  SC 200 ms Amplitude fEPSP 2nd: 0.047 and 0.061 and 0.011 and −0.015 and 0.013
  SC 200 ms Widths fEPSP 1st: 0.089 and 0.166 and 0.141 and 0.252 and 0.105
  SC 200 ms Widths fEPSP 2nd: 0.102 and 0.207 and 0.180 and 0.189 and 0.132
[3]; CX546 250 μM, n = 5
  SC 50 ms Amplitude fEPSP 1st, Change over Control (%): 3.296%
  SC 50 ms Amplitude fEPSP 2nd, Change over Control (%): −8.884%
  SC 50 ms Widths fEPSP 1st, Change over Control (%): 13.386%
  SC 50 ms Widths fEPSP 2nd, Change over Control (%): 3.276%
  SC 200 ms Amplitude fEPSP 1st, Change over Control (%): 3.764%
  SC 200 ms Amplitude fEPSP 2nd, Change over Control (%): 2.310%
  SC 200 ms Widths fEPSP 1st, Change over Control (%): 15.064%
  SC 200 ms Widths fEPSP 2nd, Change over Control (%): 16.206%
[3]; [6]
  SC 50 ms Amplitude fEPSP 1st, Mean: 0.033
  SC 50 ms Amplitude fEPSP 2nd, Mean: −0.089
  SC 50 ms Widths fEPSP 1st, Mean: 0.134
  SC 50 ms Widths fEPSP 2nd, Mean: 0.033
  SC 200 ms Amplitude fEPSP 1st, Mean: 0.038
  SC 200 ms Amplitude fEPSP 2nd, Mean: 0.023
  SC 200 ms Widths fEPSP 1st, Mean: 0.151
  SC 200 ms Widths fEPSP 2nd, Mean: 0.162
[3]; area under the curve, representative slices, FIG. 9
  area of the second response (fEPSP) in CA1: decreased
[4]
  degree to which ampakines enhance activation of interneurons (rank order): CX554>CX546>CX516
